Measured values from patent US6384074B1, “Cell growth activating composition containing compound having labdane structure” (Takasago International Corporation, priority 1998, dated 2002).

Columns and labels:
[1] = tested on: mushroom-derived tyrosinase; assay: Mushroom tyrosinase inhibition test; format: biochemical; settings: 25 ppm, L-tyrosine substrate, 37° C. 30 minutes
Description: After reaction, the absorbance (OD) at a wavelength of 490 nm was measured and the degree of inhibition of tyrosinase reaction was determined according to the following equation. […] Sample: The buffer, the enzyme solution, the substrate solution and the sample solution Sample-free: The buffer, the enzyme solution and the substrate solution Blank: The buffer and the enzyme solution

[2] = tested on: Malassezia furfur IFO 0656; assay: Anti-bacterial activity test, agar medium dilution method; format: cell-based; settings: Mf-1
Description: (§1) The aerobic microorganisms were examined in an agar medium dilution method and the anaerobic microorganisms were examined in a liquid medium dilution method under anaerobic culture conditions. Muller Hinton agar medium (DIFCO) was heated and dissolved and 10 ml of the medium was introduced into each test tube, sterilized and used. The sample was prepared by dissolving in ethanol and the resulting ethanol solution was diluted 2-fold serially with ethanol, and 100 micro-liters of sample solution were added to 10 ml of each dissolved agar medium, then stirred, introduced into a Petri dish of 9 cm in diameter, and solidified at room temperature. Each test microorganism in a well grown slant was inoculated via one loop of platinum into 10 ml Muller Hinton broth (DIFCO) and cultured with shaking at 27° C. for 24 hours and used as a microbial fluid. This fluid was diluted at 10^8 CFU (Colony forming unit)/ml, and 5 micro-liters of the diluted fluid were inoculated onto the agar and cultured at 37° C. overnight. Inoculation of the microorganism was conducted using microplanter MIT-P for 27 tubes test microorganisms (Sakuma Seisakusho K. K.).

[3] = tested on: Staphylococcus aureus IFO 12732; assay: as above; format: cell-based; settings: Sa-3
Description: as §1

[4] = tested on: Staphylococcus epidermidis var. H-6; assay: as above; format: cell-based; settings: Se-2
Description: as §1

[5] = tested on: Staphylococcus epidermidis JCM 2414; assay: as above; format: cell-based; settings: Se-1
Description: as §1

[6] = tested on: Corynebacterium xerosis JCM 1324; assay: as above; format: cell-based; settings: Cx-2
Description: as §1

[7] = tested on: Bacillus subtilis PCI 219 IFO 3134; assay: as above; format: cell-based; settings: Bs-1
Description: as §1

[8] = tested on: Corynebacterium minutissimum ATCC 23348; assay: as above; format: cell-based; settings: Cm-1
Description: as §1

[9] = target: T1, tyrosinase in B16 melanoma cells (Mus musculus, UniProt P11344); assay: Test of tyrosinase inhibition in B16 melanoma cells (crude enzyme solution); format: biochemical; settings: 25 ppm, L-DOPA substrate, 37° C. 3 hours
T1 construct: the resulting supernatant was used as a crude enzyme solution; endogenous in cells; host or cells: B16 melanoma cells (Triton X100 lysate, sonicated, 11,000 G supernatant)
T1 sequence (P11344 19-533): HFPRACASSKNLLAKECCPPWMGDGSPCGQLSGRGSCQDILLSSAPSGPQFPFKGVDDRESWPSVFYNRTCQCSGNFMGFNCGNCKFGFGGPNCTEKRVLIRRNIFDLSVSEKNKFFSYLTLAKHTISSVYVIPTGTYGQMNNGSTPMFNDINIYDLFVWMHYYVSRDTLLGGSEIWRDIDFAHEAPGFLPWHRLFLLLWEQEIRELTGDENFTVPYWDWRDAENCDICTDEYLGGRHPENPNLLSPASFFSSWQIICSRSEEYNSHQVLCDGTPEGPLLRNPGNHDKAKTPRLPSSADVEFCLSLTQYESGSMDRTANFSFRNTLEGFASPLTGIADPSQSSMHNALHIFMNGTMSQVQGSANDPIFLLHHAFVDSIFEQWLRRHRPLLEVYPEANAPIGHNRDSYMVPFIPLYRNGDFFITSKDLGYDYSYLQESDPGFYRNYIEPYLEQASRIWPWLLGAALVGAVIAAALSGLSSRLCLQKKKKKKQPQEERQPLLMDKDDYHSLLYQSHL
Description: B16 melanoma cells were cultured for 3 days in DMEM containing 10% FBS at 37° C. in the presence of 5% carbon dioxide. The cells proliferated after culture were recovered by treatment with trypsin, then suspended in PBS containing 0.1% Triton X100 at a density of ten million cells/ml and disrupted by sonication. The product obtained was centrifuged at 11,000 G for 20 minutes, and the resulting supernatant was used as a crude enzyme solution. Added thereto was 0.2 ml of crude enzyme solution. The mixture was preliminarily kept at 37° C. for 5 minutes, and 0.2 ml L-DOPA solution (0.5 mg/ml) was added as the substrate, and the mixture was kept at 37° C. for 3 hours.

B16 melanoma cells [10] = assay: Combination test with existing tyrosinase inhibitors (method of Test Example 1); format: cell-based; settings: 0.4 ppm, alone; Table 2, combined use with arbutin
Description: B16 melanoma cells were suspended (10,000 cells/ml) in DMEM (Dulbecco's modified eagle medium) containing 10% FBS (fetal bovine serum) and 8 ml of the suspension was added to a cell culture bottle with a 25 cm^2 bottom surface area, and cultured at 37° C. in the presence of 5% carbon dioxide for 3 days. After 3 days of culture, the old medium was exchanged with 8 ml of fresh medium. 40 micro-liters of a sample solution, in which compounds of the present invention had been dissolved in ethanol to give a final concentration shown in the table, were further added thereto. As the control, ethanol only was added. After the medium change, the cells were further cultured for 3 days under the same conditions. […] Degree of cell proliferation (%)=(number of cells in sample)/(number of cells in control)×100 […] Using a calibration curve of synthetic melanin, the amount of melanin/million cells was determined from the OD and the degree of inhibition of melanin production was determined according to the following equation: Degree of inhibition of melanin (%)=(amount of melanin in control−amount of melanin in sample)/(amount of melanin in control)×100 […]

B16 melanoma cells [11] = assay: Melanin formation prevention test (melanin production and cell proliferation); format: cell-based; settings: for Degree of cell proliferation: relative to ethanol control
Description: B16 melanoma cells were suspended (10,000 cells/ml) in DMEM (Dulbecco's modified eagle medium) containing 10% FBS (fetal bovine serum) and 8 ml of the suspension was added to a cell culture bottle with a 25 cm^2 bottom surface area, and cultured at 37° C. in the presence of 5% carbon dioxide for 3 days. After 3 days of culture, the old medium was exchanged with 8 ml of fresh medium. 40 micro-liters of a sample solution, in which compounds of the present invention had been dissolved in ethanol to give a final concentration shown in the table, were further added thereto. As the control, ethanol only was added. After the medium change, the cells were further cultured for 3 days under the same conditions. After culture was finished, the medium was removed, and the cells were recovered by treatment with trypsin (DIFCO) and suspended in 4 ml of phosphate buffered saline (PBS) and a predetermined amount ( 1/40) of this suspension was used to measure the number of cells in a Coultar counter (Sysmex Co.) to determine the degree of cell proliferation.
The degree of cell proliferation was determined according to the following equations:
Degree of cell proliferation (%)=(number of cells in sample)/(number of cells in control)×100
The remainder of the cell suspension was centrifuged and then washed with 5% trichloroacetic acid, then with ethanol/ethyl ether (3:1 by volume), and with ethyl ether and the cells were dried, and 2N—NaOH was added thereto to dissolve (melanin in) the cells under heating at 70° C. and measured for its optical density (OD) at 420 nm. Using a calibration curve of synthetic melanin, the amount of melanin/million cells was determined from the OD and the degree of inhibition of melanin production was determined according to the following equation:
Degree of inhibition of melanin (%)=(amount of melanin in control−amount of melanin in sample)/(amount of melanin in control)×100

[12] = tested on: streptococcus mutans JCM 5157; assay: Anti-bacterial activity test, liquid medium dilution method (anaerobic); format: cell-based; settings: Su-1, anaerobic
Description: (§2) The aerobic microorganisms were examined in an agar medium dilution method and the anaerobic microorganisms were examined in a liquid medium dilution method under anaerobic culture conditions. 10 ml GAM broth (Nissui) was introduced into each test tube equipped with a cap and sterilized. 100 micro-liter of the sample solution prepared for agar medium dilution method was added to each test tube and lightly stirred, and 100 micro-liter test microbial solution (10^7 CFU/ml) was added thereto, then capped and incubated at 37° C. The test microbial solution was prepared by introducing 100 micro-liter stock microbial solution into 10 ml GAM broth in a test tube then capping the tube and fermenting it at 37° C. overnight.

[13] = tested on: Propinibadterium Acnes ATCC 12818; assay: as above; format: cell-based; settings: Pa-1, anaerobic
Description: as §2

[14] = tested on: Human-derived normal skin fibroblasts (NB1RGB); assay: Test of cell activating activity (fibroblast proliferation); format: cell-based; settings: 8.0 ppm, relative to ethanol control (100)
Description: Human-derived normal skin fibroblasts (NB1RGB: Institute of Physical and Chemical Research) were suspended into DMEM containing 10% FBS to give a concentration of 20,000 cells/ml, and 5 ml each of this cellular suspension was introduced into each of 25 cm^2 bottles, cultured at 37° C. in the presence of 5% carbon dioxide for 24 hours. To each bottle, was added 10 micro-liter (0.2%) of the ethanol solution containing the compound to give the final concentration shown in Table 8. The cells were cultured for an additional 3 days. After 3 days the old medium was discarded and 5 ml fresh medium was added, and the sample was further added thereto. After this exchange of the medium, the cells were further cultured for another 3 days. Then cells were removed with trypsin and the number of cells in each bottle was counted with a Coultar counter. Simultaneously, as the control, only ethanol was added and the NB1RGB cells were cultured and the number of cells were counted in the same manner. The number of cells in each bottle to which the sample had been added was determined as a relative value to the number (as 100) of cells in the control after cultured, and the results are shown in Table 8.

[15] = tested on: UV Ray-induced Pigment Stains; assay: Effect of diminishing UV ray-induced pigment stains in guinea pigs; format: in vivo, brown guinea pigs; settings: 7% ethanol solution applied once per day on UVB-irradiated skin
From the text: Hair was carefully removed from the back of 5 brown guinea pigs, and a shielding plate provided with four 2.5 cm×2.5 cm openings was attached to the portion from which hair had been removed, followed by irradiating it 3 times every second day with UVB rays at an intensity of 450 mj/cm^2. Immediately after the irradiation of UVB rays, a 70 micro-liters sample was applied onto the irradiated site once per day for 35 days, and the amount of pigment diminished by this treatment was examined on the days shown in Table 5. […]
For evaluation of the activity, each application site was measured by a calorimeter (CR200b, Minolta Co Ltd.). ΔLx is the difference between the L value after the sample application (value changing with time) and the L value of the portion before the sample application started, and then ΔΔL value was determined by subtracting ΔLo value (i.e. the value similarly determined for the portion to which ethanol was applied) from the ΔLx value. The ΔΔL value can be determined according to the equation: […]
Lo: L value of the test site (site to which the sample was applied) before sample application
Lx : L value of the test site (site to which the sample was applied) on Day x after sample application
L′o : L value of the control site (site to which ethanol was applied) before ethanol application
L′x : L value of the control site (site to which ethanol was applied) on Day x after ethanol application

## CC1=C(CCC(C)CC(=O)O)C2(C)CCCC(C)(C)C2CC1 (stereo not drawn) [Compound 1, labd-8-en-15-oic acid]
[1]
  Degree of inhibition of mushroom tyrosinase: 0%
[2]
  MIC: 6.3 ppm
[3]
  MIC: 12.5 ppm
[4]
  MIC: 6.3 ppm
[5]
  MIC: 6.3 ppm
[6]
  MIC: 12.5 ppm
[7]
  MIC: 6.3 ppm
[8]
  MIC: 6.3 ppm
[9]
  Degree of inhibition of tyrosinase in B16 melanoma cells: 0%
B16 melanoma cells [10]
  Degree of cell proliferation: 115%
  Degree of melanin inhibition: 22%
B16 melanoma cells [11]; 3.1 ppm, 3 days
  Degree of melanin inhibition: 80%
B16 melanoma cells [11]; 3.1 ppm
  Degree of cell proliferation: 109%
[12]
  MIC: 6.3 ppm
[13]
  MIC: 12.5 ppm

## labden-15-oic acid [Compound 10]
[14]
  Degree of cell proliferation of fibroblasts: 126%
[2]
  MIC: 6.3 ppm
[3]
  MIC: 6.3 ppm
[4]
  MIC: 6.3 ppm
[5]
  MIC: 6.3 ppm
[6]
  MIC: 6.3 ppm
[7]
  MIC: 6.3 ppm
[8]
  MIC: 6.3 ppm
B16 melanoma cells [11]; 6.3 ppm, 3 days
  Degree of melanin inhibition: 83%
B16 melanoma cells [11]; 6.3 ppm
  Degree of cell proliferation: 97%
[12]
  MIC: 6.3 ppm
[13]
  MIC: 12.5 ppm

## O=c1cc(CO)occ1O [Kojic acid, reference compound]
[1]
  Degree of inhibition of mushroom tyrosinase: 67%
B16 melanoma cells [11]; 200.00 ppm
  Degree of cell proliferation: 94%
B16 melanoma cells [11]; Mus musculus, 72 h, 200.00 ppm, 3 days, read-out: Degree of melanin inhibition
  inhibition at 200 ppm: 34%
[15]; Day 14
  ΔΔL: 1.32
[15]; Day 28
  ΔΔL: 1.52
[15]; Day 35
  ΔΔL: 1.40
